{"source": "paper PMC3556479", "about": "(Biochemistry, 2013)", "type_in_all_cases": "biochemical", "key": {"[1]": {"molecular_target": "T1, orotidine 5′-monophosphate decarboxylase (OMPDC) (Saccharomyces cerevisiae, UniProt P03962, A160S/C155S/N267D/S2H)", "T1 sequence (P03962 2-267 S2H/C155S/A160S/N267D)": "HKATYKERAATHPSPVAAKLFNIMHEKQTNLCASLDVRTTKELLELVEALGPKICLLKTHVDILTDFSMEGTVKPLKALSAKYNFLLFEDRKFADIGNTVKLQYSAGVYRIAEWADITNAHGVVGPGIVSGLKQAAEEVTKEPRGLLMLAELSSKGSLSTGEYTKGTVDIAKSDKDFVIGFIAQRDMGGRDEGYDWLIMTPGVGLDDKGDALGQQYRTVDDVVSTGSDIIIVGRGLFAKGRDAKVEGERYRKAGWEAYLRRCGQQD", "experiment": "activation of FEO decarboxylation by added phosphite, nonlinear fit to eq […]"}, "[2]": {"molecular_target": "T2, orotidine 5′-monophosphate decarboxylase (OMPDC) (Saccharomyces cerevisiae, UniProt P03962, S2H/C155S/A160S/N267D)", "T2 sequence (P03962 2-267 S2H/C155S/A160S/N267D)": "T1 sequence (P03962 2-267 S2H/C155S/A160S/N267D)"}, "[3]": {"molecular_target": "T2, orotidine 5′-monophosphate decarboxylase (OMPDC)", "remark": "listed apart in the source"}}, "data": [{"smiles": "O=[PH](O)O", "note": "[HPO3^2−, phosphite dianion]", "values": [{"measurement": "Kd", "setting": "[1]", "result": 100, "unit": "mM"}]}, {"smiles": "C[C@H]1O[C@@H](n2c(C(=O)O)c(F)c(=O)[nH]c2=O)[C@H](O)[C@@H]1O", "note": "[5′-dFO, 5′-Deoxy-5-fluoroorotidine]", "values": [{"measurement": "HPLC initial-velocity decarboxylation assay, purified yeast OMPDC, with and with", "setting": "[2]", "result": "0.078 M^−1 s^−1 (kcat/Km)"}]}, {"smiles": "O=C(O)c1c(F)c(=O)[nH]c(=O)n1[C@@H]1OC[C@@H](O)[C@H]1O", "note": "[FEO, 1-(β-D-Erythrofuranosyl)-5-fluoroorotic acid]", "values": [{"measurement": "spectrophotometric decarboxylation assay at 282 nm, purified yeast OMPDC, with a", "setting": "[3]", "result": "10 M^−1 s^−1 (kcat/Km)"}]}]}
